Tests used:
Type in all cases: cell-based, human
[1] = test system: CTGF, fibronectin; experiment: Western blot of irradiated HFL-1 cells treated with HMG-CoA inhibitors; settings: 5 Gy, three days, FIG. 8C; for amount of CTGF detected in the cell lysate (CL): HMG-CoA inhibitor pretreatment 6 hours
Experimental: For statin treatment experiments, cells were grown overnight in 35 mm plates (6-well plates were also used in some studies) to form a 75-80% confluent monolayer. The cells were then washed with PBS, and the media was changed to SFM (800 μL).
(§1) Harvesting Culture Media and Cell Lystates. For analysis of extracellular CTGF, fibronectin, and α-tubulin, cell culture media was collected, centrifuged to remove cellular debris, aliquoted, and frozen at −70° C. until ready for use. For analysis of intracellular CTGF, fibronectin, and α-tubulin, cell lysates were harvested using 200 μL of HBSST lysis buffer (HBSS containing 1 mM MgSO4, 1 mM CaCl2, 4 mM NaHCO3, 0.5% Triton X-100, protease inhibitor cocktail). Cellular debris was removed by centrifugation.
Western blot analysis of HFL-1 whole cell proteins. […] Primary antibodies for CTGF and fibronectin were diluted at 1:600 and were incubated at 4° C. overnight with shaking. Primary antibodies for α-tubulin were diluted at 1:4,000 and were incubated at 4° C. overnight with shaking. Corresponding secondary antibodies were diluted at 1:6,000 and were incubated at room temperature for 1 hour with shaking. After washing the blot, the antibodies were detected by the enhanced chemiluminescence method (PerkinElmer Life Sciences Inc.).
Cells were harvested, and cell lysates were separated by SDS-PAGE. The separated proteins were then transferred to nitrocellulose, and Western immunoblotting was performed with antibodies specific for CTGF, fibronectin, and α-tubulin. […] As a control for protein loading, α-tubulin expression in HFL-1 cells was also determined.
Cells were harvested, and cell lysates were separated by SDS-PAGE. The separated proteins were then transferred to nitrocellulose, and Western immunoblotting was performed with antibodies specific for CTGF, fibronectin, and α-tubulin. FIG. 8C is a Western blot of HFL-1 cells exposed to radiation and treated with HMG-CoA inhibitors.

[2] = test system: CTGF, fibronectin (FN), collagen type IV (Col IV) mRNA; experiment: RT-PCR of mRNA expression in HFL-1 cells treated with TGF-β1; settings: 0 to 25 ng/ml TGF-β1, six hour treatment, FIG. 5A
Experimental: (§2) Cell Culture and Treatment. Normal human fetal lung fibroblasts (HFL-1) were purchased from the American Type Culture Collection (ATCC Number: CCL-153) and cultured in Ham's F12K medium (American Type Culture Collection) supplemented with 2 mM L-glutamine adjusted to contain 1.5 g/L sodium bicarbonate and 10% fetal bovine serum. Cells were maintained in humidified 5% CO2 at 37° C. Human dermal fibroblasts (HDF), derived from the dermis of normal human adult skin, were purchased from Invitrogen, Inc. and cultured in Medium-106 (Invitrogen, Inc., Catalogue No. M-106-500) containing LSGS Kit (Invitrogen, Inc., Catalogue No. S-003-K) prior to use. After reaching 75-80% confluence, the medium was changed to serum free medium (SFM) for irradiation with different dose 1Gy, 2.5Gy, 5Gy, 7.5Gy and 10 Gy by using ^137Se. Alternatively, cells were treated with 5 ng/ml TGF-β1 (Sigma-Aldrich, Inc., Catalogue No. T7039) to stimulate CTGF production. The cells were then kept for 3 days in humidified 5% CO2 at 37° C. and subjected to Western immunoblot.^1 ^1What are the culture conditions (e.g., media) for M12 cells used in FIG. 3? […]
Normal human fetal lung fibroblasts (HFL-1) were treated with varying concentrations of TGF-β1, ranging from 0 ng/ml to 25 ng/ml. […] FIG. 5A is an agarose gel of RT-PCR products detected in HFL-1 cells following a six (6) hour treatment with TGF-β1.

[3] = test system: CTGF, fibronectin; experiment: Western blot of HFL-1 cells treated with TGF-β1
Experimental: Cell Culture and Treatment. Normal human fetal lung fibroblasts (HFL-1) were purchased from the American Type Culture Collection (ATCC Number: CCL-153) and cultured in Ham's F12K medium (American Type Culture Collection) supplemented with 2 mM L-glutamine adjusted to contain 1.5 g/L sodium bicarbonate and 10% fetal bovine serum. Cells were maintained in humidified 5% CO2 at 37° C. Human dermal fibroblasts (HDF), derived from the dermis of normal human adult skin, were purchased from Invitrogen, Inc. and cultured in Medium-106 (Invitrogen, Inc., Catalogue No. M-106-500) containing LSGS Kit (Invitrogen, Inc., Catalogue No. S-003-K) prior to use. After reaching 75-80% confluence, the medium was changed to serum free medium (SFM) for irradiation with different dose 1Gy, 2.5Gy, 5Gy, 7.5Gy and 10 Gy by using ^137Se. Alternatively, cells were treated with 5 ng/ml TGF-β1 (Sigma-Aldrich, Inc., Catalogue No. T7039) to stimulate CTGF production. […] 3?
as §1
Western blot analysis of HFL-1 whole cell proteins. The primary antibodies that selectively recognized CTGF (sc-14939) and fibronectin (sc-9068) were purchased from Santa Cruz Biotechnology, Inc., and primary antibodies that selectively recognized α-tubulin (T 9026) were purchased from Sigma. […] After washing the blot, the antibodies were detected by the enhanced chemiluminescence method (PerkinElmer Life Sciences Inc.).
Protein expression in HFL-1 cells treated with TGF-β1 was also determined. […] As a control for protein loading, α-tubulin expression in HFL-1 cells was also determined.

[4] = test system: CTGF, fibronectin (FN), collagen type IV (Col IV) mRNA; experiment: RT-PCR of mRNA expression in HDF cells treated with TGF-β1; settings: 0 to 25 ng/ml TGF-β1, FIG. 9A
Experimental: as §2
Human dermal fibroblasts (HDF) were treated with varying concentrations of TGF-β1, ranging from 0 ng/ml to 25 ng/ml, […]. […] FIG. 9A is an agarose gel of RT-PCR products detected in HDF cells following a six (6) hour treatment with TGF-β1.

[5] = test system: CTGF, fibronectin; experiment: Western blot of HDF cells treated with TGF-β1; settings: three days after TGF-β1, FIG. 9B
Experimental: Cell Culture and Treatment. Normal human fetal lung fibroblasts (HFL-1) were purchased from the American Type Culture Collection (ATCC Number: CCL-153) and cultured in Ham's F12K medium (American Type Culture Collection) supplemented with 2 mM L-glutamine adjusted to contain 1.5 g/L sodium bicarbonate and 10% fetal bovine serum. Cells were maintained in humidified 5% CO2 at 37° C. Human dermal fibroblasts (HDF), derived from the dermis of normal human adult skin, were purchased from Invitrogen, Inc. and cultured in Medium-106 (Invitrogen, Inc., Catalogue No. M-106-500) containing LSGS Kit (Invitrogen, Inc., Catalogue No. S-003-K) prior to use. After reaching 75-80% confluence, the medium was changed to serum free medium (SFM) for irradiation with different dose 1Gy, 2.5Gy, 5Gy, 7.5Gy and 10 Gy by using ^137Se. […]
Harvesting Culture Media and Cell Lystates. For analysis of extracellular CTGF, fibronectin, and α-tubulin, cell culture media was collected, centrifuged to remove cellular debris, aliquoted, and frozen at −70° C. until ready for use. […]
Western blot analysis of HFL-1 whole cell proteins. […] After washing the blot, the antibodies were detected by the enhanced chemiluminescence method (PerkinElmer Life Sciences Inc.).
Protein expression in HDF cells treated with TGF-β1 was also determined. […] As a control for protein loading, α-tubulin expression in HFL-1 cells was also determined.

[6] = three days after TGF-β1, FIG. 5B

`CCOP(=O)(OCC)C(=Cc1cc(C(C)(C)C)c(O)c(C(C)(C)C)c1)P(=O)(OCC)OCC` [SR12813] was tested, and the “amount of CTGF detected in the cell lysate (CL)” value (“amount of CTGF detected” for short) [1] was “decreased as the amount of HMG-CoA inhibitor increased” and the “inhibitory effects on radiation-induced CTGF relative to other HMG-CoA inhibitors” value ([1]; pretreatment 6 hours) was “reduced relative to the inhibitory effects of simvastatin, pravastatin, lovastatin, mevinolin, and mevastatin”.
`CC[C@H](C)C(=O)O[C@H]1CCC=C2C=C[C@H](C)[C@H](CC[C@@H]3C[C@@H](O)CC(=O)O3)C21` (stereo partly drawn) [mevastatin, (2S)-2-methyl-butanoic acid(1S,7S,8S,8aR)-1,2,3,7,8,8a-hexahydro-7-methyl-8-[2-[(2R,4R)-tetrahydro-4-hydroxy-6-oxo-2H-pyran-2-yl]ethyl]-1-naphthale-nylester] was tested, and the “amount of CTGF detected” value [1] was “decreased as the amount of HMG-CoA inhibitor increased”.
In the case of `CC[C@H](C)C(=O)O[C@H]1C[C@H](O)C=C2C=C[C@H](C)[C@H](CC[C@@H](O)C[C@@H](O)CC(=O)O)[C@H]21` [pravastatin, (βR,δR,1S,2S,6S,8S,8aR)-1,2,6,7,8,8a-hexahydro-β,δ,-6-trihydroxy-2-methyl-8-[(2S)-2-methyl-1-oxobutoxy]-1-naphthalene-heptanoic acid], the “amount of CTGF detected” value [1] is reported as “decreased as the amount of HMG-CoA inhibitor increased”.
With “(2S)-2-methyl-butanoic acid(1S,3R,7S,8S,8aR)-1,2,3,7,8,8a-hexahydro-3,7-dimethyl-8-[2-[(2R,4R)-tetrahydro-4-hydroxy-6-oxo-2H-pyran-2-yl]ethyl]-1-na-phthalenylester [mevinolin]” the “amount of CTGF detected” value [1] was “decreased as the amount of HMG-CoA inhibitor increased”.
“TGF-β1: Cytokine used to stimulate CTGF production (Sigma-Aldrich, Inc., Catalogue No. T7039)” was tested, and the “expression of CTGF, FN, and Col IV mRNA” value [2] was “increased as the concentration of TGF-β1 increased”, the CTGF expression ([3]; 5 ng/ml TGF-β1 for 4 days, FIG. 1) was “increased” and the “amount of CTGF in culture medium (CM) and cell lysate (CL)” value [3, 6] was “increased as the amount of TGF-β1 increased”. The fibronectin protein expression [3, 6] was “same increase in protein expression”, the “expression of CTGF, FN, and Col IV mRNA” value [4] was “increased as the concentration of TGF-β1 increased” and the “amount of CTGF in culture medium (CM) and cell lysate (CL)” value [5] was “increased as the amount of TGF-β1 increased”. For the same compound, the fibronectin protein expression [5] was “same increase in protein expression”.

From patent publication US20090069623A1, “METHODS AND COMPOSITIONS FOR TREATMENT OR PREVENTION OF RADIATION-INDUCED FIBROSIS” (Virginia Commonwealth University Intellectual Property …, priority 2007, published 2009)
